Experimental data taken from patent US20020028809A1 (SUNTORY LIMITED, priority 1999, published 2002).

target: T1, α4β2 subtype of nicotinic acetylcholine receptors (Rattus norvegicus, UniProt P09483+P12390); assay: Binding assays at α4β2 subtype of nicotinic acetylcholine receptors ([3H]-cytisine, rat brain membrane); conditions: not given
T1 construct: examined using rat brain membrane obtained from whole homogenized brain; from tissue; host or cells: whole brain of Fischer-344 male rats, membrane pellet
T1 sequence (P09483 31-630): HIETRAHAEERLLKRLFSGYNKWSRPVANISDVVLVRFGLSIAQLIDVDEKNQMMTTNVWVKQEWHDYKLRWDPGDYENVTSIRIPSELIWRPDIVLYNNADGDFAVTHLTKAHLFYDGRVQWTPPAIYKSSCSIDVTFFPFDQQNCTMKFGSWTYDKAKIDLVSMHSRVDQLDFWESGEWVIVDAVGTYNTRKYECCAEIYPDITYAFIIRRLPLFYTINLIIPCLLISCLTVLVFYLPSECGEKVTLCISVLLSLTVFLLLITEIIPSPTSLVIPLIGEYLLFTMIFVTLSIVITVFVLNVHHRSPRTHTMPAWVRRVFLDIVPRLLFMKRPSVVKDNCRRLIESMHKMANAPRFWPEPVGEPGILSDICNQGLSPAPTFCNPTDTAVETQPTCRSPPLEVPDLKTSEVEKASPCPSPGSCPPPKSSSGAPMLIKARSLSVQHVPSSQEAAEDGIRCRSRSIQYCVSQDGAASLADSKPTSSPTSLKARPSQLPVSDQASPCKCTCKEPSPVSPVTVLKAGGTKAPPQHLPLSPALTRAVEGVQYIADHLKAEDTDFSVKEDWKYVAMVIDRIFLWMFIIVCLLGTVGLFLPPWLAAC
T1 sequence (P12390 25-500): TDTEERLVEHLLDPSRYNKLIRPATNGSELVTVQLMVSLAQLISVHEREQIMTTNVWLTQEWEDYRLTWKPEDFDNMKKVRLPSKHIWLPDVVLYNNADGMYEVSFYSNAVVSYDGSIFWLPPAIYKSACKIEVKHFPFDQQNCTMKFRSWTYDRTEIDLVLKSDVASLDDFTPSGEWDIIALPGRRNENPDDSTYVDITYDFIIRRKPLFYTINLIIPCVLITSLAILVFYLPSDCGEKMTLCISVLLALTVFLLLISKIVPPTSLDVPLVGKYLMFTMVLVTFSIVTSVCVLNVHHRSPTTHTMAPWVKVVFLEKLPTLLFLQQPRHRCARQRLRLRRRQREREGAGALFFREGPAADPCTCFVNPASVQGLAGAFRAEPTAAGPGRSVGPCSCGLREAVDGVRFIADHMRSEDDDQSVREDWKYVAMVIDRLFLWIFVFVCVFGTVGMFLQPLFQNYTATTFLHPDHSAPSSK

Row | Structure (SMILES) | Ki [nM]
1 | N=c1sccn1Cc1ccc(Br)nc1 [Compound 11, 3-(6-bromo-3-pyridyl)methyl-2-imino-2,3-dihydrothiazole] | 0.63
2 | N=c1sccn1Cc1ccc(F)nc1 [Compound 12, 3-(6-fluoro-3-pyridyl)methyl-2-imino-2,3-dihydrothiazole] | 1.89
3 | N=C1SCCN1Cc1ccc(Cl)cc1 [Compound 31, 3-(4-chlorobenzyl)-2-iminothiazolidine] | 93
4 | N=C1SCCN1Cc1ccnnc1 [Compound 33, 2-imino-3-(4-pyridazinyl)methylthiazolidine] | 32
5 | N=C1SCCN1Cc1cnc(Cl)s1 [Compound 34, 3-(2-chloro-5-thiazolyl)methyl-2-iminothiazolidine] | 4.9
6 | N=c1ccc(-c2ccccc2)nn1Cc1ccc(Cl)nc1 [Compound 44, 2-(6-chloro-3-pyridyl)methyl-3-imino-6-phenyl-2,3-dihydropyridazine] | 64

same assay, conditions: rat brain membrane, [3H]-cytisine (2 nM); read-out: Affinities for receptors Ki α4β2

Row | Structure (SMILES) | Ki [nM]
7 | N=C1SCCN1Cc1ccc(Cl)nc1 [Compound 5, 3-(6-chloro-3-pyridyl)methyl-2-iminothiazolidine] | 2.2
8 | N=c1ccccn1Cc1ccc(Cl)nc1 [Compound 7, 1-(6-chloro-3-pyridyl)methyl-2-imino-1,2-dihydropyridine] | 3.1
9 | N=c1sccn1Cc1ccc(Cl)nc1 [Compound 8, 3-(6-chloro-3-pyridyl)methyl-2-imino-2,3-dihydrothiazole] | 0.5
10 | Nc1nccn1Cc1ccc(Cl)nc1 [Compound 9, 2-amino-1-(6-chloro-3-pyridyl)methylimidazole] | 22.2
11 | N=C1NCCN1Cc1ccc(Cl)nc1 [Compound 13, 1-(6-Chloro-3-pyridyl)methyl-2-iminoimidazolidine] | 4.6
12 | N=C1CCCN1Cc1ccc(Cl)nc1 [Compound 14, 1-(6-Chloro-3-pyridyl)methyl-2-iminopyrrolidine] | 1.9
13 | Nc1nccn1Cc1cccnc1 [Compound 55, 2-amino-i-(3-pyridyl)methylimidazole] | 43
